From PubChem BioAssay (NCI)
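All cell lines were grown in 96-well plates and treated with compound for 48 hours. GI50 is the concentration that inhibits growth by half. TGI marks complete inhibition of growth.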

Tests used:
Test in all cases: growth of human tumour cells (NCI), 48 h
786-0 renal = test system: 786-0 renal
A498 renal = test system: A498 renal
A549 NSCLC = test system: A549 NSCLC
ACHN renal = test system: ACHN renal
BT-549 breast = test system: BT-549 breast
CAKI-1 renal = test system: CAKI-1 renal
CCRF-CEM leukemia = test system: CCRF-CEM leukemia
COLO 205 colon = test system: COLO 205 colon
DU-145 prostate = test system: DU-145 prostate
EKVX NSCLC = test system: EKVX NSCLC
HCC-2998 colon = test system: HCC-2998 colon
HCT-116 colon = test system: HCT-116 colon
HCT-15 colon = test system: HCT-15 colon
HL-60(TB) leukemia = test system: HL-60(TB) leukemia
HOP-62 NSCLC = test system: HOP-62 NSCLC
HOP-92 NSCLC = test system: HOP-92 NSCLC
HT29 colon = test system: HT29 colon
IGROV1 ovarian = test system: IGROV1 ovarian
K-562 leukemia = test system: K-562 leukemia
KM12 colon = test system: KM12 colon
LOX IMVI melanoma = test system: LOX IMVI melanoma
M14 melanoma = test system: M14 melanoma
MALME-3M melanoma = test system: MALME-3M melanoma
MCF7 breast = test system: MCF7 breast
MDA-MB-231 breast = test system: MDA-MB-231 breast
MDA-MB-435 = test system: MDA-MB-435
MOLT-4 leukemia = test system: MOLT-4 leukemia
NCI-H226 lung = test system: NCI-H226 lung
NCI-H23 lung = test system: NCI-H23 lung
NCI-H460 lung = test system: NCI-H460 lung
NCI-H522 lung = test system: NCI-H522 lung
NCI/ADR-RES ovarian = test system: NCI/ADR-RES ovarian
OVCAR-3 ovarian = test system: OVCAR-3 ovarian
OVCAR-4 ovarian = test system: OVCAR-4 ovarian
OVCAR-5 ovarian = test system: OVCAR-5 ovarian
OVCAR-8 ovarian = test system: OVCAR-8 ovarian
PC-3 prostate = test system: PC-3 prostate
RPMI-8226 leukemia = test system: RPMI-8226 leukemia
RXF 393 renal = test system: RXF 393 renal
SF-268 CNS = test system: SF-268 CNS
SF-295 CNS = test system: SF-295 CNS
SF-539 CNS = test system: SF-539 CNS
SK-MEL-2 melanoma = test system: SK-MEL-2 melanoma
SK-MEL-28 melanoma = test system: SK-MEL-28 melanoma
SK-MEL-5 melanoma = test system: SK-MEL-5 melanoma
SK-OV-3 ovarian = test system: SK-OV-3 ovarian
SN12C renal = test system: SN12C renal
SNB-19 CNS = test system: SNB-19 CNS
SNB-75 CNS = test system: SNB-75 CNS
SR leukemia = test system: SR leukemia
SW-620 colon = test system: SW-620 colon
T-47D breast = test system: T-47D breast
TK-10 renal = test system: TK-10 renal
U251 CNS = test system: U251 CNS
UACC-257 melanoma = test system: UACC-257 melanoma
UACC-62 melanoma = test system: UACC-62 melanoma
UO-31 renal = test system: UO-31 renal

**Q.** With `COc1ccc([C@@H]2C(=O)N(c3cc(OC)c(OC)c(OC)c3)[C@H]2c2ccc(OC)c(O)c2)cc1` as the compound, how does the GI50 (786-0 renal) read?
**A.** 76.2 nM

**Q.** And the TGI (786-0 renal)?
**A.** > 100000 nM

**Q.** And the GI50 (A498 renal)?
**A.** 8560 nM

**Q.** And the TGI (A498 renal)?
**A.** > 100000 nM

**Q.** And the GI50 (A549 NSCLC)?
**A.** 43.8 nM

**Q.** What about the TGI (A549 NSCLC) of the same compound?
**A.** > 100000 nM

**Q.** What about the GI50 (ACHN renal) of the same compound?
**A.** 84.7 nM

**Q.** What about the TGI (ACHN renal) of the same compound?
**A.** 32400 nM

**Q.** And the GI50 (BT-549 breast)?
**A.** 55.5 nM

**Q.** And the TGI (BT-549 breast)?
**A.** 3200 nM

**Q.** And the GI50 (CAKI-1 renal)?
**A.** 68.1 nM

**Q.** What about the TGI (CAKI-1 renal) of the same compound?
**A.** > 100000 nM

**Q.** And the GI50 (CCRF-CEM leukemia)?
**A.** 35.6 nM

**Q.** And the TGI (CCRF-CEM leukemia)?
**A.** > 100000 nM

**Q.** And the GI50 (COLO 205 colon)?
**A.** 54.6 nM

**Q.** What about the TGI (COLO 205 colon) of the same compound?
**A.** 205 nM

**Q.** And the GI50 (DU-145 prostate)?
**A.** 59.6 nM

**Q.** And the TGI (DU-145 prostate)?
**A.** > 100000 nM

**Q.** And the GI50 (EKVX NSCLC)?
**A.** 49.8 nM

**Q.** And the TGI (EKVX NSCLC)?
**A.** > 100000 nM

**Q.** What about the GI50 (HCC-2998 colon) of the same compound?
**A.** 259 nM

**Q.** And the TGI (HCC-2998 colon)?
**A.** 18500 nM

**Q.** And the GI50 (HCT-116 colon)?
**A.** 35.3 nM

**Q.** And the TGI (HCT-116 colon)?
**A.** > 100000 nM

**Q.** What about the GI50 (HCT-15 colon) of the same compound?
**A.** 34.8 nM

**Q.** What about the TGI (HCT-15 colon) of the same compound?
**A.** > 100000 nM

**Q.** And the GI50 (HL-60(TB) leukemia)?
**A.** 21.4 nM

**Q.** And the TGI (HL-60(TB) leukemia)?
**A.** 52.7 nM

**Q.** What about the GI50 (HOP-62 NSCLC) of the same compound?
**A.** 41.1 nM

**Q.** And the TGI (HOP-62 NSCLC)?
**A.** > 100000 nM

**Q.** What about the GI50 (HOP-92 NSCLC) of the same compound?
**A.** 6020 nM

**Q.** And the TGI (HOP-92 NSCLC)?
**A.** 48800 nM

**Q.** And the GI50 (HT29 colon)?
**A.** 43.1 nM

**Q.** What about the TGI (HT29 colon) of the same compound?
**A.** 11500 nM

**Q.** What about the GI50 (IGROV1 ovarian) of the same compound?
**A.** 63 nM

**Q.** What about the TGI (IGROV1 ovarian) of the same compound?
**A.** > 100000 nM

**Q.** What about the GI50 (K-562 leukemia) of the same compound?
**A.** 30.6 nM

**Q.** And the TGI (K-562 leukemia)?
**A.** 30500 nM

**Q.** What about the GI50 (KM12 colon) of the same compound?
**A.** 45.9 nM

**Q.** And the TGI (KM12 colon)?
**A.** > 100000 nM

**Q.** And the GI50 (LOX IMVI melanoma)?
**A.** 37.6 nM

**Q.** What about the TGI (LOX IMVI melanoma) of the same compound?
**A.** > 100000 nM

**Q.** What about the GI50 (M14 melanoma) of the same compound?
**A.** 69.6 nM

**Q.** And the TGI (M14 melanoma)?
**A.** 48100 nM

**Q.** And the GI50 (MALME-3M melanoma)?
**A.** 61 nM

**Q.** What about the TGI (MALME-3M melanoma) of the same compound?
**A.** 40800 nM

**Q.** What about the GI50 (MCF7 breast) of the same compound?
**A.** 38.1 nM

**Q.** What about the TGI (MCF7 breast) of the same compound?
**A.** > 100000 nM

**Q.** What about the GI50 (MDA-MB-231 breast) of the same compound?
**A.** 36.7 nM

**Q.** What about the TGI (MDA-MB-231 breast) of the same compound?
**A.** > 100000 nM

**Q.** And the GI50 (MDA-MB-435)?
**A.** 30.1 nM

**Q.** What about the TGI (MDA-MB-435) of the same compound?
**A.** > 100000 nM

**Q.** And the GI50 (MOLT-4 leukemia)?
**A.** 38.2 nM

**Q.** And the TGI (MOLT-4 leukemia)?
**A.** 31600 nM

**Q.** And the GI50 (NCI-H226 lung)?
**A.** 36.2 nM

**Q.** What about the TGI (NCI-H226 lung) of the same compound?
**A.** 37200 nM

**Q.** What about the GI50 (NCI-H23 lung) of the same compound?
**A.** 47 nM

**Q.** And the TGI (NCI-H23 lung)?
**A.** 44100 nM

**Q.** And the GI50 (NCI-H460 lung)?
**A.** 36 nM

**Q.** And the TGI (NCI-H460 lung)?
**A.** > 100000 nM

**Q.** And the GI50 (NCI-H522 lung)?
**A.** 20.9 nM

**Q.** What about the TGI (NCI-H522 lung) of the same compound?
**A.** 58 nM

**Q.** And the GI50 (NCI/ADR-RES ovarian)?
**A.** 24 nM

**Q.** And the TGI (NCI/ADR-RES ovarian)?
**A.** 59.8 nM

**Q.** And the GI50 (OVCAR-3 ovarian)?
**A.** 40.8 nM

**Q.** What about the TGI (OVCAR-3 ovarian) of the same compound?
**A.** 28900 nM

**Q.** What about the GI50 (OVCAR-4 ovarian) of the same compound?
**A.** 3980 nM

**Q.** What about the TGI (OVCAR-4 ovarian) of the same compound?
**A.** > 100000 nM

**Q.** And the GI50 (OVCAR-5 ovarian)?
**A.** 49.8 nM

**Q.** What about the TGI (OVCAR-5 ovarian) of the same compound?
**A.** > 100000 nM

**Q.** And the GI50 (OVCAR-8 ovarian)?
**A.** 33.2 nM

**Q.** And the TGI (OVCAR-8 ovarian)?
**A.** 27800 nM

**Q.** And the GI50 (PC-3 prostate)?
**A.** 200 nM

**Q.** And the TGI (PC-3 prostate)?
**A.** > 100000 nM

**Q.** What about the GI50 (RPMI-8226 leukemia) of the same compound?
**A.** 49.2 nM

**Q.** What about the TGI (RPMI-8226 leukemia) of the same compound?
**A.** 12000 nM

**Q.** What about the GI50 (RXF 393 renal) of the same compound?
**A.** 41.7 nM

**Q.** What about the TGI (RXF 393 renal) of the same compound?
**A.** 51100 nM

**Q.** What about the GI50 (SF-268 CNS) of the same compound?
**A.** 300 nM

**Q.** And the TGI (SF-268 CNS)?
**A.** > 100000 nM

**Q.** And the GI50 (SF-295 CNS)?
**A.** 32.4 nM

**Q.** And the TGI (SF-295 CNS)?
**A.** 18900 nM

**Q.** And the GI50 (SF-539 CNS)?
**A.** 22.1 nM

**Q.** And the TGI (SF-539 CNS)?
**A.** 56.7 nM

**Q.** What about the GI50 (SK-MEL-2 melanoma) of the same compound?
**A.** 48.3 nM

**Q.** What about the TGI (SK-MEL-2 melanoma) of the same compound?
**A.** > 100000 nM

**Q.** And the GI50 (SK-MEL-28 melanoma)?
**A.** 13400 nM

**Q.** What about the TGI (SK-MEL-28 melanoma) of the same compound?
**A.** > 100000 nM

**Q.** What about the GI50 (SK-MEL-5 melanoma) of the same compound?
**A.** 35.4 nM

**Q.** And the TGI (SK-MEL-5 melanoma)?
**A.** 161 nM

**Q.** What about the GI50 (SK-OV-3 ovarian) of the same compound?
**A.** 32.5 nM

**Q.** What about the TGI (SK-OV-3 ovarian) of the same compound?
**A.** 65200 nM

**Q.** And the GI50 (SN12C renal)?
**A.** 41.3 nM

**Q.** What about the TGI (SN12C renal) of the same compound?
**A.** > 100000 nM

**Q.** And the GI50 (SNB-19 CNS)?
**A.** 284 nM

**Q.** And the TGI (SNB-19 CNS)?
**A.** > 100000 nM

**Q.** What about the GI50 (SNB-75 CNS) of the same compound?
**A.** 44.4 nM

**Q.** And the TGI (SNB-75 CNS)?
**A.** 51700 nM

**Q.** And the GI50 (SR leukemia)?
**A.** 31.6 nM

**Q.** What about the TGI (SR leukemia) of the same compound?
**A.** 25700 nM

**Q.** And the GI50 (SW-620 colon)?
**A.** 42.8 nM

**Q.** And the TGI (SW-620 colon)?
**A.** > 100000 nM

**Q.** And the GI50 (T-47D breast)?
**A.** 24300 nM

**Q.** And the TGI (T-47D breast)?
**A.** > 100000 nM

**Q.** And the GI50 (TK-10 renal)?
**A.** 15100 nM

**Q.** What about the TGI (TK-10 renal) of the same compound?
**A.** > 100000 nM

**Q.** What about the GI50 (U251 CNS) of the same compound?
**A.** 34 nM

**Q.** What about the TGI (U251 CNS) of the same compound?
**A.** > 100000 nM

**Q.** What about the GI50 (UACC-257 melanoma) of the same compound?
**A.** 13000 nM

**Q.** And the TGI (UACC-257 melanoma)?
**A.** > 100000 nM

**Q.** And the GI50 (UACC-62 melanoma)?
**A.** 82.5 nM

**Q.** And the TGI (UACC-62 melanoma)?
**A.** 42300 nM

**Q.** And the GI50 (UO-31 renal)?
**A.** 134 nM

**Q.** And the TGI (UO-31 renal)?
**A.** 23700 nM
